Reference: patent US20170045513A1, “METHODS OF DIAGNOSING CELIAC DISEASE USING IP-10” (ImmusanT, Inc., priority 2014, published 2017)
Non-standard residues stand in square brackets, D forms with d. pGlu = O=C1CC[C@@H](C(=O)O)N1

System: gluten-reactive T cells
Experiment: 96-well plate whole blood cytokine release, IP-10 by MAGPIX multiplex bead assay
Type: cell-based, human
Conditions: for Percent of maximal response to individual gluten peptides, IP-10: after oral gluten challenge; for IP-10 WB MAGPIX % max Mean: n = 10, blood after oral gluten challenge, individual peptides 5 μM (Peptide 2* of P14, Pepscan: 10 μg/mL (5.45 μM))

Row | Substance | Percent of maximal response to individual gluten peptides, IP-10 (Subject 1, Max. 2331 pg/mL) | Percent of maximal response to individual gluten peptides, IP-10 (Subject 2, Max. 3646 pg/mL) | Percent of maximal response to individual gluten peptides, IP-10 (Subject 3, Max. 9492 pg/mL) | Percent of maximal response to individual gluten peptides, IP-10 (Subject 4, Max. 9463 pg/mL) | Percent of maximal response to individual gluten peptides, IP-10 (Subject 5, Max. 9336 pg/mL) | Percent of maximal response to individual gluten peptides, IP-10 (Subject 6, Max. 5863 pg/mL) | Percent of maximal response to individual gluten peptides, IP-10 (Subject 7, Max. 2330 pg/mL) | Percent of maximal response to individual gluten peptides, IP-10 (Subject 8, Max. 4019 pg/mL) | Percent of maximal response to individual gluten peptides, IP-10 (Subject 9, Max. 8349 pg/mL) | Percent of maximal response to individual gluten peptides, IP-10 (Subject 10, Max. 8922 pg/mL) | IP-10 WB MAGPIX % max Mean [% max] | whole blood IP-10 release relative to that stimulated by Peptide 14 (whole blood incubations after oral gluten challenge)
1 | (pE)LQPFPQPELPYPQPQ-amide ([pGlu]LQPFPQPELPYPQPQ-NH2; SMILES CC(C)C[C@H](NC(=O)[C@@H]1CCC(=O)N1)C(=O)N[C@@H](CCC(N)=O)C(=O)N1CCC[C@H]1C(=O)N[C@@H](Cc1ccccc1)C(=O)N1CCC[C@H]1C(=O)N[C@@H](CCC(N)=O)C(=O)N1CCC[C@H]1C(=O)N[C@@H](CCC(=O)O)C(=O)N[C@@H](CC(C)C)C(=O)N1CCC[C@H]1C(=O)N[C@@H](Cc1ccc(O)cc1)C(=O)N1CCC[C@H]1C(=O)N[C@@H](CCC(N)=O)C(=O)N1CCC[C@H]1C(=O)N[C@@H](CCC(N)=O)C(N)=O) [Peptide 1] | 100 % of max | 100 % of max | ≥ 100 % of max | 96 % of max | 14 % of max | 23 % of max | 39 % of max | 3 % of max | 75 % of max | 34 % of max | 58 | –
2 | (pE)PEQPEQPFPEQPQQ-amide ([pGlu]PEQPEQPFPEQPQQ-NH2; SMILES NC(=O)CC[C@H](NC(=O)[C@H](CCC(N)=O)NC(=O)[C@@H]1CCCN1C(=O)[C@H](CCC(N)=O)NC(=O)[C@H](CCC(=O)O)NC(=O)[C@@H]1CCCN1C(=O)[C@H](Cc1ccccc1)NC(=O)[C@@H]1CCCN1C(=O)[C@H](CCC(N)=O)NC(=O)[C@H](CCC(=O)O)NC(=O)[C@@H]1CCCN1C(=O)[C@H](CCC(N)=O)NC(=O)[C@H](CCC(=O)O)NC(=O)[C@@H]1CCCN1C(=O)[C@@H]1CCC(=O)N1)C(N)=O) [Peptide 11] | 0 % of max | 0 % of max | 6 % of max | 2 % of max | 0 % of max | 0 % of max | 0 % of max | 0 % of max | 0 % of max | 0 % of max | 1 | –
3 | (pE)PEQPFPEQPIPEQPQPYP-amide ([pGlu]PEQPFPEQPIPEQPQPYP-NH2; SMILES CC[C@H](C)[C@H](NC(=O)[C@@H]1CCCN1C(=O)[C@H](CCC(N)=O)NC(=O)[C@H](CCC(=O)O)NC(=O)[C@@H]1CCCN1C(=O)[C@H](Cc1ccccc1)NC(=O)[C@@H]1CCCN1C(=O)[C@H](CCC(N)=O)NC(=O)[C@H](CCC(=O)O)NC(=O)[C@@H]1CCCN1C(=O)[C@@H]1CCC(=O)N1)C(=O)N1CCC[C@H]1C(=O)N[C@@H](CCC(=O)O)C(=O)N[C@@H](CCC(N)=O)C(=O)N1CCC[C@H]1C(=O)N[C@@H](CCC(N)=O)C(=O)N1CCC[C@H]1C(=O)N[C@@H](Cc1ccc(O)cc1)C(=O)N1CCC[C@H]1C(N)=O) [Peptide 14] | 2 % of max | 31 % of max | ≥ 100 % of max | ≥ 100 % of max | 100 % of max | 100 % of max | 100 % of max | 91 % of max | ≥ 100 % of max | ≥ 100 % of max | 82 | –
4 | (pE)PEQPIPEQPQPYPQQ-amide ([pGlu]PEQPIPEQPQPYPQQ-NH2; SMILES CC[C@H](C)[C@H](NC(=O)[C@@H]1CCCN1C(=O)[C@H](CCC(N)=O)NC(=O)[C@H](CCC(=O)O)NC(=O)[C@@H]1CCCN1C(=O)[C@@H]1CCC(=O)N1)C(=O)N1CCC[C@H]1C(=O)N[C@@H](CCC(=O)O)C(=O)N[C@@H](CCC(N)=O)C(=O)N1CCC[C@H]1C(=O)N[C@@H](CCC(N)=O)C(=O)N1CCC[C@H]1C(=O)N[C@@H](Cc1ccc(O)cc1)C(=O)N1CCC[C@H]1C(=O)N[C@@H](CCC(N)=O)C(=O)N[C@@H](CCC(N)=O)C(N)=O) [Peptide 3] | 51 % of max | 14 % of max | ≥ 100 % of max | ≥ 100 % of max | 53 % of max | 43 % of max | 5 % of max | 100 % of max | 85 % of max | ≥ 100 % of max | 65 | one-quarter less
5 | (pE)PQPYPEQPQPFPQQ-amide ([pGlu]PQPYPEQPQPFPQQ-NH2; SMILES NC(=O)CC[C@H](NC(=O)[C@H](CCC(N)=O)NC(=O)[C@@H]1CCCN1C(=O)[C@H](Cc1ccccc1)NC(=O)[C@@H]1CCCN1C(=O)[C@H](CCC(N)=O)NC(=O)[C@@H]1CCCN1C(=O)[C@H](CCC(N)=O)NC(=O)[C@H](CCC(=O)O)NC(=O)[C@@H]1CCCN1C(=O)[C@H](Cc1ccc(O)cc1)NC(=O)[C@@H]1CCCN1C(=O)[C@H](CCC(N)=O)NC(=O)[C@@H]1CCCN1C(=O)[C@@H]1CCC(=O)N1)C(N)=O) [Peptide 8] | 0 % of max | 5 % of max | ≥ 100 % of max | ≥ 100 % of max | 45 % of max | 2 % of max | 0 % of max | 39 % of max | 31 % of max | 94 % of max | 42 | –
6 | (pE)QPFPQPELPYPYPQ-amide ([pGlu]QPFPQPELPYPYPQ-NH2; SMILES CC(C)C[C@H](NC(=O)[C@H](CCC(=O)O)NC(=O)[C@@H]1CCCN1C(=O)[C@H](CCC(N)=O)NC(=O)[C@@H]1CCCN1C(=O)[C@H](Cc1ccccc1)NC(=O)[C@@H]1CCCN1C(=O)[C@H](CCC(N)=O)NC(=O)[C@@H]1CCC(=O)N1)C(=O)N1CCC[C@H]1C(=O)N[C@@H](Cc1ccc(O)cc1)C(=O)N1CCC[C@H]1C(=O)N[C@@H](Cc1ccc(O)cc1)C(=O)N1CCC[C@H]1C(=O)N[C@@H](CCC(N)=O)C(N)=O) [Peptide 16] | 16 % of max | 45 % of max | ≥ 100 % of max | 69 % of max | 35 % of max | 4 % of max | 800 % of max | 1 % of max | 60 % of max | 11 % of max | 42 | –
7 | (pE)QPFPQPEQPFPLQPEQP-amide ([pGlu]QPFPQPEQPFPLQPEQP-NH2; SMILES CC(C)C[C@H](NC(=O)[C@@H]1CCCN1C(=O)[C@H](Cc1ccccc1)NC(=O)[C@@H]1CCCN1C(=O)[C@H](CCC(N)=O)NC(=O)[C@H](CCC(=O)O)NC(=O)[C@@H]1CCCN1C(=O)[C@H](CCC(N)=O)NC(=O)[C@@H]1CCCN1C(=O)[C@H](Cc1ccccc1)NC(=O)[C@@H]1CCCN1C(=O)[C@H](CCC(N)=O)NC(=O)[C@@H]1CCC(=O)N1)C(=O)N[C@@H](CCC(N)=O)C(=O)N1CCC[C@H]1C(=O)N[C@@H](CCC(=O)O)C(=O)N[C@@H](CCC(N)=O)C(=O)N1CCC[C@H]1C(N)=O) [Peptide 6] | 34 % of max | 21 % of max | ≥ 100 % of max | ≥ 100 % of max | 8 % of max | 0 % of max | 1 % of max | 8 % of max | ≥ 100 % of max | 56 % of max | 43 | –
